Data taken from the CheMixHub viscosity set.
Several values for one entry are separate records, joined by “and”; a condition that tells them apart may be missing. Equal entries are not always repeated.

Test: xn = mol fraction of the nth substance listed

CCCC[n+]1ccn(C)c1.O=[N+]([O-])[O-] + CCO
101 kPa
Settings	viscosity [mPa·s]
293.15 K, x1 = 0.8	73.11
303.15 K, x1 = 0.6	22.05

COC(=O)c1ccccc1 + CCO
viscosity [mPa·s], 100 kPa
Settings	x1 = 0.05	x1 = 0.1	x1 = 0.2	x1 = 0.3	x1 = 0.4	x1 = 0.5	x1 = 0.6	x1 = 0.65	x1 = 0.8	x1 = 0.9
293.2 K	1.178	1.178	1.207	1.26	1.325	1.402	1.489	1.536	1.701	1.842
298.2 K	1.074	1.076	1.102	1.15	1.208	1.276	1.355	1.397	1.542	1.667
303.2 K	0.98	0.983	1.008	1.052	1.106	1.167	1.238	1.276	1.408	1.518
308.2 K	0.896	0.901	0.925	0.966	1.015	1.072	1.137	1.17	1.291	1.391
313.2 K	0.822	0.827	0.851	0.89	0.936	0.988	1.047	1.079	1.188	1.279

Oc1cccc(Cl)c1 + CCO
Settings	viscosity [mPa·s]
298.15 K, 101 kPa, x1 = 0.5	1.45

CCOCCOCCOCC + CCOC(=O)OCC
viscosity [mPa·s], 101.33 kPa
Settings	298.15 K	308.15 K	318.15 K
x1 = 0.0221	0.763	0.667	0.584
x1 = 0.0409	0.776	0.675	0.592
x1 = 0.0945	0.812	0.699	0.609
x1 = 0.1858	0.863	0.741	0.643
x1 = 0.2214	0.89	0.758	0.656
x1 = 0.2775	0.923	0.784	0.677
x1 = 0.3669	0.972	0.822	0.707
x1 = 0.4971	1.041	0.879	0.747
x1 = 0.5997	1.092	0.917	0.775
x1 = 0.6836	1.133	0.947	0.801
x1 = 0.7747	1.17	0.979	0.825
x1 = 0.8683	1.214	1.009	0.849
x1 = 0.9296	1.239	1.027	0.862
x1 = 0.9694	1.255	1.04	0.871

O=C(OCc1ccccc1)c1ccccc1 + CCOC(=O)c1ccccc1
298.15 K, 101 kPa
Settings	viscosity [mPa·s]
x2 = 0.0465	8.039
x2 = 0.1549	6.898
x2 = 0.2475	6.108
x2 = 0.2973	5.695
x2 = 0.3945	4.948
x2 = 0.5054	4.309
x2 = 0.5941	3.74
x2 = 0.6906	3.249
x2 = 0.8023	2.749
x2 = 0.8963	2.371

O=C(OCc1ccccc1)c1ccccc1 + CCOC(=O)c1ccccc1C(=O)OCC
313.15 K, 101.33 kPa
Settings	viscosity [mPa·s]
x1 = 0.25	5.87
x1 = 0.5	5.54
x1 = 0.75	5.27

O=C(OCc1ccccc1)c1ccccc1 + CCOC(C)=O
298.15 K, 101 kPa
Settings	viscosity [mPa·s]
x2 = 0.0784	7.003
x2 = 0.1426	5.938
x2 = 0.2347	4.711
x2 = 0.3002	3.881
x2 = 0.4001	3.047
x2 = 0.5	2.299
x2 = 0.5863	1.789
x2 = 0.6973	1.275
x2 = 0.799	0.9116
x2 = 0.898	0.6406

CCNCCO + CCOCCOCCOCC
viscosity, 101.3 kPa
Settings	x1 = 0.313	x1 = 0.548	x1 = 0.732	x1 = 0.879	x2 = 0.1906	x2 = 0.3546	x2 = 0.5618
293.15 K	1.74 mPa·s	2.601 mPa·s and 2.603 mPa·s	4.275 mPa·s	7.482 mPa·s	5.481 mPa·s	3.2 mPa·s	2.028 mPa·s
303.15 K	1.397 mPa·s	2.007 mPa·s and 2.027 mPa·s	3.137 mPa·s	5.176 mPa·s	3.902 mPa·s	2.422 mPa·s	1.604 mPa·s
313.15 K	1.14 mPa·s	1.584 mPa·s and 1.616 mPa·s	2.372 mPa·s	3.717 mPa·s	2.88 mPa·s	1.867 mPa·s	1.291 mPa·s
323.15 K	0.9463 mPa·s	1.276 mPa·s and 1.317 mPa·s	1.844 mPa·s	2.764 mPa·s	2.189 mPa·s	1.478 mPa·s	1.056 mPa·s

CCCCOCCO + CCc1ccccc1
viscosity [mPa·s], 101 kPa
Settings	298.15 K	308.15 K
x1 = 0.0546	0.678	0.568
x1 = 0.1505	0.769	0.643
x1 = 0.2513	0.877	0.732
x1 = 0.3501	1.003	0.835
x1 = 0.4528	1.161	0.961
x1 = 0.4982	1.24	1.025
x1 = 0.55	1.339	1.103
x1 = 0.6497	1.56	1.277
x1 = 0.7511	1.831	1.487
x1 = 0.8507	2.156	1.736
x1 = 0.9614	2.601	2.071

CC(C)OCCO + CN1CCCC1=O
298.15 K, 101 kPa
Settings	viscosity [mPa·s]
x1 = 0.004	1.691
x1 = 0.0105	1.702
x1 = 0.0362	1.729
x1 = 0.0624	1.753
x1 = 0.088	1.764
x1 = 0.1136	1.779
x1 = 0.1577	1.814
x1 = 0.2017	1.843
x1 = 0.2462	1.882
x1 = 0.3116	1.929
x1 = 0.3451	1.955
x1 = 0.3748	1.969
x1 = 0.4055	1.989
x1 = 0.4494	2.011
x1 = 0.5127	2.045
x1 = 0.5735	2.073
x1 = 0.6423	2.096
x1 = 0.7229	2.118
x1 = 0.7639	2.134
x1 = 0.8354	2.127
x1 = 0.9185	2.12
x1 = 0.9736	2.109
x2 = 0.0086	2.107

CC(C)OCCO + CN(C)C=O
298.15 K, 101 kPa
Settings	viscosity [mPa·s]
x1 = 0.0025	0.815
x1 = 0.0124	0.827
x1 = 0.0296	0.854
x1 = 0.048	0.885
x1 = 0.0898	0.932
x1 = 0.1476	1.006
x1 = 0.1908	1.066
x1 = 0.2558	1.142
x1 = 0.3145	1.213
x1 = 0.344	1.247
x1 = 0.3645	1.274
x1 = 0.4159	1.34
x1 = 0.4723	1.42
x1 = 0.52	1.491
x1 = 0.562	1.543
x1 = 0.6131	1.617
x1 = 0.6641	1.697
x1 = 0.7547	1.818
x1 = 0.7959	1.874
x1 = 0.8833	2.005
x1 = 0.9392	2.069
x1 = 0.9642	2.093
x2 = 0.0058	2.104

COC(=O)c1ccccc1 + CN(C)C=O
viscosity [mPa·s], 101.3 kPa
Settings	x2 = 0.1213	x2 = 0.1914	x2 = 0.2976	x2 = 0.3961	x2 = 0.5284	x2 = 0.6218	x2 = 0.7468	x2 = 0.8028	x2 = 0.9311
298.15 K	1.74	1.644	1.507	1.388	1.239	1.141	1.02	0.969	0.86
303.15 K	1.622	1.536	1.413	1.306	1.169	1.078	0.963	0.915	0.81
308.15 K	1.524	1.447	1.334	1.235	1.107	1.022	0.913	0.867	0.764
313.15 K	1.305	1.252	1.173	1.1	1.003	0.936	0.848	0.809	0.721

CCNCCO + CN(C)CCO
viscosity [mPa·s], 101.3 kPa
Settings	x1 = 0.0999	x1 = 0.2001	x1 = 0.3	x1 = 0.4	x1 = 0.4998	x1 = 0.6001	x1 = 0.7	x1 = 0.8002	x1 = 0.9
293.15 K	3.88	4.63	5.5	6.48	7.55	8.66	9.82	10.97	12.14
303.15 K	2.92	3.31	3.85	4.47	5.17	5.88	6.63	7.39	8.16
313.15 K	2.18	2.42	2.8	3.22	3.71	4.24	4.78	5.32	5.84
323.15 K	1.79	1.95	2.15	2.39	2.68	2.98	3.3	3.62	3.93

CCOS(=O)(=O)[O-].CC[N+](CC)=C(N(C)C)N(C)C + CO
viscosity [mPa·s], 100 kPa
Settings	x1 = 0.1	x1 = 0.1991	x1 = 0.298	x1 = 0.3949	x1 = 0.4982	x1 = 0.5999	x1 = 0.6953	x1 = 0.7999	x1 = 0.9002
293.15 K	1.785	4.501	9.381	18.38	32.98	53.59	80.2	115.6	153.4
298.15 K	1.634	4.072	8.2	15.58	27.24	42.8	62.36	87.46	112.3
303.15 K	1.504	3.661	7.163	13.38	22.82	34.85	49.55	67.85	86.71
308.15 K	1.389	3.307	6.417	11.63	19.37	28.79	40.16	53.89	67.59
313.15 K	1.287	3	5.724	10.18	16.65	24.17	33.08	43.49	53.73
318.15 K	1.195	2.734	4.994	8.991	14.45	20.55	27.69	35.64	43.24
323.15 K	1.113	2.5	4.58	7.999	12.64	17.68	23.46	29.74	35.49
